This passage reports IC50 results from patent US20240368173A1, “TRICYCLIC GPR65 MODULATORS” (PATHIOS THERAPEUTICS LIMITED, priority 2021, published 2024).

Like-named read-outs stand apart in the source and are kept apart here. Bounds are passed on as bounds.

The assay has as its target human recombinant GPR65 (Homo sapiens, UniProt Q8IYL9). In words: Human GPR65 cAMP HTRF antagonist assay. The assay is classed as cell-based. In short, it runs like this:
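1321N1 astrocytoma cells stably expressing hrGPR65, with IBMX and EDTA, were preincubated with compound 30 min at room temperature, then acid-activated at assay pH 7.2 (control pH 7.9) for 30 min. cAMP read by HTRF (665/620 nm ratio); IC50 from 4-parameter fit normalised to high/low controls.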

Where [1] appears, read: 1321N1-hrGPR65 cells, cAMP HTRF, assay pH 7.2, read-out: hGPR65 IC50 (Activity of selected compounds according to the invention).

Chain of human recombinant GPR65 (Q8IYL9 whole entry): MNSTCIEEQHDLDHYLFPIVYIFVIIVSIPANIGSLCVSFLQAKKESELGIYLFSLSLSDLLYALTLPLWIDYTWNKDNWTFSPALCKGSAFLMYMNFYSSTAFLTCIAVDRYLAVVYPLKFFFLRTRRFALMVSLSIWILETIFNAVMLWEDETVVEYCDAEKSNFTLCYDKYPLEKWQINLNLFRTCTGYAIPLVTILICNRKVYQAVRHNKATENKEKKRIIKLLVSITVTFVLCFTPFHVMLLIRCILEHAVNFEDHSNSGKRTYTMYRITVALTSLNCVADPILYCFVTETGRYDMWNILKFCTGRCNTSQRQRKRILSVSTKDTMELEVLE

Consider `O=C(Nc1ccc(C2CCOCC2)cc1)N1[C@H]2CC[C@@H]1c1ccnc(F)c1C2` [Compound 57, (5R,8S)-1-Fluoro-N-(4-(tetrahydro-2H-pyran-4-yl)phenyl)-6,7,8,9-tetrahydro-5H-5,8-epiminocyclohepta[c]pyridine-10-carboxamide], for which the IC50 under setting [1] was in the range of 500 to 5000 nM.
In the case of `O=C(Nc1ccc(C2COC2)cc1)N1[C@H]2CC[C@@H]1c1ccnc(F)c1C2` [Compound 58, (5R,8S)-1-Fluoro-N-(4-(oxetan-3-yl)phenyl)-6,7,8,9-tetrahydro-5H-5,8-epiminocyclohepta[c]pyridine-10-carboxamide], the IC50 fell in the range of 500 to 5000 nM.
Turning to `O=C(Nc1ccc(C2CC2)c(Cl)c1)N1[C@H]2CC[C@@H]1c1ccnc(F)c1C2` [Compound 59, (5R,8S)-N-(3-Chloro-4-cyclopropylphenyl)-1-fluoro-6,7,8,9-tetrahydro-5H-5,8-epiminocyclohepta[c]pyridine-10-carboxamide], the IC50 was < 500 nM.
On the same count and under the same terms, under `CC(C)(O)c1ccc(NC(=O)N2[C@H]3CC[C@@H]2c2ccnc(F)c2C3)cc1Cl` [Compound 60, (5R,8S)—N-(3-Chloro-4-(2-hydroxypropan-2-yl)phenyl)-1-fluoro-6,7,8,9-tetrahydro-5H-5,8-epiminocyclohepta[c]pyridine-10-carboxamide] stands < 500 nM.
With `CC1(c2ccc(NC(=O)N3[C@H]4CC[C@@H]3c3ccnc(F)c3C4)cc2)COC1` [Compound 61, (5R,8S)-1-Fluoro-N-(4-(3-methyloxetan-3-yl)phenyl)-6,7,8,9-tetrahydro-5H-5,8-epiminocyclohepta[c]pyridine-10-carboxamide], the IC50 under setting [1] was > 5000 nM.
Regarding `O=C(Nc1ccc(N2CC3CCC(C2)O3)cc1)N1[C@H]2CC[C@@H]1c1ccnc(F)c1C2` [Compound 62, (5R,8S)-N-(4-(8-Oxa-3-azabicyclo[3.2.1]octan-3-yl)phenyl)-1-fluoro-6,7,8,9-tetrahydro-5H-5,8-epiminocyclohepta[c]pyridine-10-carboxamide], under setting [1], the IC50 was > 5000 nM.
For `O=C(Nc1cc(Cl)c(C2CC2)cc1F)N1[C@H]2CC[C@@H]1c1ccnc(F)c1C2` [Compound 63, (5R,8S)-N-(5-Chloro-4-cyclopropyl-2-fluorophenyl)-1-fluoro-6,7,8,9-tetrahydro-5H-5,8-epiminocyclohepta[c]pyridine-10-carboxamide], the IC50 was < 500 nM.
Take `Cc1nnc(-c2cc(F)c(NC(=O)N3[C@H]4CC[C@@H]3c3ccnc(F)c3C4)cc2Cl)s1` [Compound 64, (5R,8S)-N-(5-Chloro-2-fluoro-4-(5-methyl-1,3,4-thiadiazol-2-yl)phenyl)-1-fluoro-6,7,8,9-tetrahydro-5H-5,8-epiminocyclohepta[c]pyridine-10-carboxamide]: the 50% inhibitory concentration (IC50) is < 500 nM.
Same read-out and setting: under `O=C(Nc1cc(Cl)c(-c2nnc(C(F)(F)F)s2)cc1F)N1[C@H]2CC[C@@H]1c1ccnc(F)c1C2` [Compound 65, (5R,8S)-N-(5-Chloro-2-fluoro-4-(5-(trifluoromethyl)-1,3,4-thiadiazol-2-yl)phenyl)-1-fluoro-6,7,8,9-tetrahydro-5H-5,8-epiminocyclohepta[c]pyridine-10-carboxamide] stands < 500 nM.
Same read-out and setting: under `O=C(Nc1ccc(-c2nnc(C(F)(F)F)s2)cc1)N1[C@H]2CC[C@@H]1c1ccnc(F)c1C2` [Compound 66, (5R,8S)-1-Fluoro-N-(4-(5-(trifluoromethyl)-1,3,4-thiadiazol-2-yl)phenyl)-6,7,8,9-tetrahydro-5H-5,8-epiminocyclohepta[c]pyridine-10-carboxamide] stands < 500 nM; under `O=C(Nc1cc(Cl)c(OC2CCC2)cc1F)N1[C@H]2CC[C@@H]1c1ccnc(F)c1C2` [Compound 67, (5R,8S)-N-(5-Chloro-4-cyclobutoxy-2-fluorophenyl)-1-fluoro-6,7,8,9-tetrahydro-5H-5,8-epiminocyclohepta[c]pyridine-10-carboxamide], < 500 nM.
As to `O=C(Nc1cc(Cl)c(C2(O)CC2)cc1F)N1[C@H]2CC[C@@H]1c1ccnc(F)c1C2` [Compound 68, (5R,8S)-N-(5-Chloro-2-fluoro-4-(1-hydroxycyclopropyl)phenyl)-1-fluoro-6,7,8,9-tetrahydro-5H-5,8-epiminocyclohepta[c]pyridine-10-carboxamide], under setting [1], the IC50 fell in the range of 500 to 5000 nM.
Regarding `O=C(Nc1ccc(OC2CCC2)c(Cl)c1)N1[C@H]2CC[C@@H]1c1ccnc(F)c1C2` [Compound 69, (5R,8S)-N-(3-Chloro-4-cyclobutoxyphenyl)-1-fluoro-6,7,8,9-tetrahydro-5H-5,8-epiminocyclohepta[c]pyridine-10-carboxamide], the half-maximal inhibitory concentration (IC50) was < 500 nM.
The same measure, in the same setting: under `CC(C)Oc1ccc(NC(=O)N2[C@H]3CC[C@@H]2c2ccnc(F)c2C3)cc1Cl` [Compound 70, (5R,8S)-N-(3-Chloro-4-isopropoxyphenyl)-1-fluoro-6,7,8,9-tetrahydro-5H-5,8-epiminocyclohepta[c]pyridine-10-carboxamide] stands < 500 nM.
Turning to `O=C(Nc1ccc(OC2COC2)c(Cl)c1)N1[C@H]2CC[C@@H]1c1ccnc(F)c1C2` [Compound 71, (5R,8S)-N-(3-Chloro-4-(oxetan-3-yloxy)phenyl)-1-fluoro-6,7,8,9-tetrahydro-5H-5,8-epiminocyclohepta[c]pyridine-10-carboxamide], the 50% inhibitory concentration (IC50) under setting [1] fell in the range of 500 to 5000 nM.
As to `CO[C@H]1C[C@@H](Oc2ccc(NC(=O)N3[C@H]4CC[C@@H]3c3ccnc(F)c3C4)cc2Cl)C1` [Compound 72, (5R,8S)-N-(3-Chloro-4-((1s,3S)-3-methoxycyclobutoxy)phenyl)-1-fluoro-6,7,8,9-tetrahydro-5H-5,8-epiminocyclohepta[c]pyridine-10-carboxamide], the IC50 was 500 to 5000 nM.
Regarding `CO[C@H]1C[C@H](Oc2ccc(NC(=O)N3[C@H]4CC[C@@H]3c3ccnc(F)c3C4)cc2Cl)C1` [Compound 73, (5R,8S)-N-(3-Chloro-4-((1r,3R)-3-methoxycyclobutoxy)phenyl)-1-fluoro-6,7,8,9-tetrahydro-5H-5,8-epiminocyclohepta[c]pyridine-10-carboxamide], the IC50 lay within 500 to 5000 nM.
Still for that read-out and setting: under `O=C(Nc1cc(Cl)c(I)cc1F)N1[C@H]2CC[C@@H]1c1ccnc(F)c1C2` [Compound 77, (5R,8S)-N-(5-Chloro-2-fluoro-4-iodophenyl)-1-fluoro-6,7,8,9-tetrahydro-5H-5,8-epiminocyclohepta[c]pyridine-10-carboxamide] stands < 500 nM.
For `O=C(Nc1cc(I)c(Cl)cc1F)N1[C@H]2CC[C@@H]1c1ccnc(F)c1C2` [Compound 78, (5R,8S)-N-(4-Chloro-2-fluoro-5-iodophenyl)-1-fluoro-6,7,8,9-tetrahydro-5H-5,8-epiminocyclohepta[c]pyridine-10-carboxamide], the 50% inhibitory concentration (IC50) under setting [1] was 500 to 5000 nM.
Take `O=C(Nc1cc(Cl)c(I)cc1F)N1[C@H]2CC[C@@H]1c1c[nH]c(=O)cc1C2` [Compound 79, (6S,9R)-N-(5-Chloro-2-fluoro-4-iodophenyl)-3-oxo-3,5,6,7,8,9-hexahydro-2H-6,9-epiminocyclohepta[c]pyridine-10-carboxamide]: the concentration for half-maximal inhibition (IC50) was < 500 nM.
Still for that read-out and setting: under `O=C(Nc1cc(I)c(Cl)cc1F)N1[C@H]2CC[C@@H]1c1c[nH]c(=O)cc1C2` [Compound 80, (6S,9R)-N-(4-Chloro-2-fluoro-5-iodophenyl)-3-oxo-3,5,6,7,8,9-hexahydro-2H-6,9-epiminocyclohepta[c]pyridine-10-carboxamide] stands 500 to 5000 nM.
The same measure, in the same setting: under `O=C(Nc1cc(Cl)c(OC2CCC2)cc1F)N1[C@H]2CC[C@@H]1c1c[nH]c(=O)cc1C2` [Compound 81, (6S,9R)-N-(5-Chloro-4-cyclobutoxy-2-fluorophenyl)-3-oxo-3,5,6,7,8,9-hexahydro-2H-6,9-epiminocyclohepta[c]pyridine-10-carboxamide] stands < 500 nM; under `O=C(Nc1cc(Cl)c(C2CC2)cc1F)N1[C@H]2CC[C@@H]1c1c[nH]c(=O)cc1C2` [Compound 82, (6S,9R)-N-(5-Chloro-4-cyclopropyl-2-fluorophenyl)-3-oxo-3,5,6,7,8,9-hexahydro-2H-6,9-epiminocyclohepta[c]pyridine-10-carboxamide], < 500 nM; under `O=C(Nc1cc(Cl)c(C(F)(F)F)cc1F)N1[C@H]2CC[C@@H]1c1ccnnc1C2` [Compound 85, (5R,8S)-N-(5-Chloro-2-fluoro-4-(trifluoromethyl)phenyl)-6,7,8,9-tetrahydro-5H-5,8-epiminocyclohepta[c]pyridazine-10-carboxamide], < 500 nM.
In the case of `COc1nccc2c1C[C@@H]1CC[C@H]2N1C(=O)Nc1cc(Cl)c(Cl)cc1F` [Compound 88, (5R,8S)-N-(4,5-Dichloro-2-fluorophenyl)-1-methoxy-6,7,8,9-tetrahydro-5H-5,8-epiminocyclohepta[c]pyridine-10-carboxamide], under setting [1], the IC50 fell in the range of 500 to 5000 nM.
The same measure, in the same setting: under `O=C(Nc1cc(Cl)c(Cl)cc1F)N1[C@H]2CC[C@@H]1c1ccnc(C(F)F)c1C2` [Compound 89, (5R,8S)-N-(4,5-Dichloro-2-fluorophenyl)-1-(difluoromethyl)-6,7,8,9-tetrahydro-5H-5,8-epiminocyclohepta[c]pyridine-10-carboxamide] stands 500 to 5000 nM.
The same measure, in the same setting: under `O=C(Nc1cc(Cl)c(Cl)cc1F)N1[C@H]2CC[C@@H]1c1ncccc1C2` [Compound 90, (6S,9R)-N-(4,5-Dichloro-2-fluorophenyl)-6,7,8,9-tetrahydro-5H-6,9-epiminocyclohepta[b]pyridine-10-carboxamide] stands > 5000 nM; under `O=C(Nc1cc(Cl)c(Cl)cc1F)N1[C@H]2CC[C@@H]1c1nccc(F)c1C2` [Compound 91, (6S,9R)-N-(4,5-dichloro-2-fluorophenyl)-4-fluoro-6,7,8,9-tetrahydro-5H-6,9-epiminocyclohepta[b]pyridine-10-carboxamide], 500 to 5000 nM.
With `N#Cc1nccc2c1C[C@@H]1CC[C@H]2N1C(=O)Nc1cc(Cl)c(Cl)cc1F` [Compound 92, (5R,8S)-1-Cyano-N-(4,5-dichloro-2-fluorophenyl)-6,7,8,9-tetrahydro-5H-5,8-epiminocyclohepta[c]pyridine-10-carboxamide], the IC50 is < 500 nM.

As usually defined, the IC50 is the concentration that gives 50% inhibition.
